Activity calls are given as the source filed them. The rule behind the calls is not given here.
What was measured:
RAW264.7 [1] = test: Inhibition of NO production in mouse RAW264.7 cells incubated for 24 hrs by Griess reagent based analysis; format: functional, cell-based; details: RAW264.7, 24 h
[2] = Cytotoxicity against LPS-stimulated mouse RAW264.7 cells after 24 hrs by MTT assay; format: toxicity, cell-based; details: LPS-stimulated RAW264.7 cells
[3] = test system: Mycobacterium tuberculosis; test: Antitubercular activity against Mycobacterium tuberculosis H37Rv assessed as reduction in microbial growth after 5 days by MTT assay; format: functional; details: 120 h, time 5 day
[4] = Selectivity index, ratio of CC50 for cytotoxicity against LPS-stimulated mouse RAW264.7 cells to MIC50 for antitubercular activity against Mycobacterium tuberculosis H37Rv; format: toxicity, cell-based; details: LPS-stimulated RAW264.7 cells, read-out: Selectivity Index
RAW264.7 [5] = test: Anti-inflammatory activity against LPS-stimulated mouse RAW264.7 cells assessed as reduction in TNFalpha protein expression level after 24 hrs by ELISA; format: functional, cell-based; details: RAW264.7, 24 h
RAW264.7 [6] = test: Anti-inflammatory activity against LPS-stimulated mouse RAW264.7 cells assessed as reduction in IL1beta protein expression level after 24 hrs by ELISA; format: functional, cell-based; details: RAW264.7, 24 h
RAW264.7 [7] = test: Anti-inflammatory activity against LPS-stimulated mouse RAW264.7 cells assessed as reduction in TNFalpha protein expression level at 12.5 uM after 24 hrs by ELISA; format: functional, cell-based
[8] = test system: Mycobacterium tuberculosis; test: Antitubercular activity against Mycobacterium tuberculosis M299 infected in mouse RAW264.7 cells assessed as reduction in intracellular microbial growth after 4 days followed by cell lysis and measured after 21 days; format: functional; details: M299, 96 h, time 4 day
[9] = Selectivity index, ratio of CC50 for cytotoxicity against LPS-stimulated mouse RAW264.7 cells to MIC50 for antitubercular activity against Mycobacterium tuberculosis M299; format: toxicity, cell-based; details: LPS-stimulated RAW264.7 cells, read-out: Selectivity Index
[10] = test system: Mycobacterium tuberculosis; test: Antitubercular activity against Mycobacterium tuberculosis H37Rv infected in mouse RAW264.7 cells assessed as reduction in microbial growth after 4 days followed by cell lysis and measured after 21 days; format: functional; details: 96 h, time 4 day
[11] = test system: Mycobacterium tuberculosis; test: Antitubercular activity against Mycobacterium tuberculosis M299 assessed as reduction in microbial growth after 5 days by MTT assay; format: functional, organism-based; details: M299, 120 h
RAW264.7 [12] = test: Anti-inflammatory activity against LPS-stimulated mouse RAW264.7 cells assessed as reduction in iNOS protein expression level at 100 uM after 24 hrs by immunoblot analysis relative to control; format: functional

Compound	IC50 (RAW264.7 [1])	CC50 at 24 h [2]	MIC50 [3]	selectivity ratio [4]	IC50 (RAW264.7 [5])	IC50 (RAW264.7 [6])	inhibition (RAW264.7 [7])	MIC50 [8]	selectivity ratio [9]	MIC50 [10]	IC50 [11]	inhibition at 100 µM (RAW264.7 [12])
COc1ccc(NC(S)=Nc2ccccc2)cc1	≥ 200 µM	43.3 µM	16.2 µM	2.7	–	–	–	–	–	–	–	–
Oc1cccc(NC(=S)NCc2ccccc2)c1	200 µM	≥ 200 µM	77.2 µM	> 2.6	–	–	–	–	–	–	–	–
O=C(C1CCCO1)N1CCN(C(=S)NCc2ccccc2)CC1 (stereo unspecified)	≥ 200 µM	≥ 200 µM	24.9 µM	> 8	–	–	–	–	–	–	–	–
CC(C)Cc1ccc(C(C)C(=O)O)cc1 (stereo unspecified) [IBUPROFEN]	–	–	–	–	2.1 µM	14.4 µM	Active	–	–	–	–	–
CCN(CC)C(S)=NCCc1ccccc1	≥ 200 µM	87.3 µM	17.6 µM	4.9	–	–	–	–	–	–	–	–
S=C(NCc1ccccc1)Nc1ccc2c(c1)OCO2	24.8 µM	≥ 200 µM	132 µM	> 1.5	–	–	–	–	–	–	–	–
S=C(NCCc1ccccc1)N1CCOCC1	≥ 200 µM	≥ 200 µM	≥ 200 µM	> 1	–	–	–	–	–	–	–	–
O=C(NNC(=S)NCc1ccccc1)c1ccncc1	7.4 µM	93.2 µM	1.3 µM	71.7	18.7 µM	≥ 200 µM	Active	32 µM	13.5	3.7 µM	6.9 µM	≤ 100%
S=C(NCc1ccccc1)Nc1ccc2c(c1)OCCO2	13.7 µM	≥ 200 µM	2 µM	> 100	20.7 µM	33.2 µM	Active	19.4 µM	≥ 17.7	4.8 µM	11.3 µM	≤ 100%
OCCNC(=S)Nc1ccccc1	≥ 200 µM	105 µM	53.3 µM	1.9	–	–	–	–	–	–	–	–
O=C(C1CCCO1)N1CCN(C(=S)Nc2ccccc2)CC1 (stereo unspecified)	187 µM	≥ 200 µM	23.3 µM	> 8.6	–	–	–	–	–	–	–	–
COc1ccc(NC(=S)NCc2ccccc2)cc1	≥ 200 µM	105 µM	7.9 µM	133	–	–	–	–	–	–	–	–
S=C(Nc1ccccc1)N1CCN(c2ncccn2)CC1	≥ 200 µM	≥ 200 µM	127 µM	> 1.6	–	–	–	–	–	–	–	–
N#CNC(=S)NCCc1ccccc1	10.1 µM	65.9 µM	33.3 µM	1.9	–	–	–	–	–	–	–	–
CCCCNC(=S)NCc1ccccc1	143 µM	177 µM	160 µM	1.1	–	–	–	–	–	–	–	–
S=C(Nc1ccccc1)Nc1ccccn1	182 µM	≥ 200 µM	16.4 µM	> 12.2	–	–	–	–	–	–	–	–
S=C(NCc1ccccc1)N1CCN(c2ccccc2)CC1	4.1 µM	54.3 µM	27.9 µM	1.9	–	–	–	–	–	–	–	–
S=C(NCc1ccccc1)Nc1ccccn1	≥ 200 µM	≥ 200 µM	17.7 µM	> 1.1	–	–	–	–	–	–	–	–
CC(C)NC(=S)NCCc1ccccc1	20.6 µM	≥ 200 µM	108 µM	> 1.9	–	–	–	–	–	–	–	–
COc1cc(NC(=S)Nc2ccccc2)cc(OC)c1OC	15.2 µM	154 µM	28.9 µM	5.3	–	–	–	–	–	–	–	–
CCCCN1CCN(C(=S)Nc2ccccc2)CC1	≥ 200 µM	≥ 200 µM	31.5 µM	> 6.4	–	–	–	–	–	–	–	–
S=C(Nc1ccccc1)N1CCN(Cc2ccc3c(c2)OCO3)CC1	116 µM	≥ 200 µM	23.9 µM	> 8.4	–	–	–	–	–	–	–	–
S=C(NCc1ccccc1)N1CCN(Cc2ccc3c(c2)OCO3)CC1	110 µM	136 µM	8.5 µM	15.9	–	–	–	–	–	–	–	–
S=C(Nc1ccccc1)N1CCN(c2ccccc2Cl)CC1	≥ 200 µM	30.5 µM	37.3 µM	0.8	–	–	–	–	–	–	–	–
